{"source": "ChEMBL document CHEMBL5505975", "about": "“Design, synthesis and biological evaluation of CDC20 inhibitors for treatment of triple-negative breast cancer” (Eur J Med Chem, 2024)", "key": {"MDA-MB-231 [1]": {"system": "MDA-MB-231", "assay": "Cell cycle arrest in human MDA-MB-231 cells assessed as G2 phase cells at 10 uM incubated for 48 hrs by PI staining based flow cytometric analysis (reference value: 7.3%)", "assay_type": "functional"}, "MDA-MB-231 [2]": {"system": "MDA-MB-231", "assay": "Induction of autophagy in human MDA-MB-231 cells assessed as autophagic lysosomes at 10 uM incubated for 48 hrs by transmission electron microscopic analysis", "assay_type": "functional, cell-based"}, "[3]": {"assay": "Toxicity in female BALB/C mouse implanted with mouse 4T1 cells assessed as effect on body weight at 20 to 50 mg/kg, po administered every two days for 21 days", "assay_type": "organism-based", "details": "in vivo, 504 h, dose 20-50 mg/kg, time 21 day"}, "[4]": {"assay": "Toxicity in female BALB/C mouse implanted with mouse 4T1 cells assessed as effect on lymphocytes at 20 to 50 mg/kg, iv administered every two days for 21 days by routine blood analysis", "assay_type": "organism-based", "details": "in vivo, 504 h, dose 20-50 mg/kg, time 21 day"}, "[5]": {"assay": "Toxicity in female BALB/C mouse implanted with mouse 4T1 cells assessed as change in serum CREA level at 20 to 50 mg/kg, po administered every two days for 21 days", "assay_type": "organism-based", "details": "in vivo, 504 h, dose 20-50 mg/kg, time 21 day"}, "MDA-MB-231 [6]": {"system": "MDA-MB-231", "assay": "Induction of apoptosis in human MDA-MB-231 cells assessed as necrotic cells at 2.5 uM incubated for 48 hrs by Annexin V-FITC/PI staining based flow cytometric analysis (reference value: 1.63%)", "assay_type": "functional"}, "4T1 [7]": {"system": "4T1", "assay": "Antitumor activity against mouse 4T1 cells implanted in female BALB/C mouse assessed as inhibition of tumor weight at 50 mg/kg, iv administered every two days for 21 days relative to control", "assay_type": "functional, organism-based", "details": "time 21.0 day"}, "MDA-MB-231 [8]": {"system": "MDA-MB-231", "assay": "Induction of apoptosis in human MDA-MB-231 cells assessed as early apoptotic cells at 2.5 uM incubated for 48 hrs by Annexin V-FITC/PI staining based flow cytometric analysis (reference value: 2.25 %)", "assay_type": "functional"}, "[9]": {"assay": "Toxicity in female BALB/C mouse implanted with mouse 4T1 cells assessed as spleen damage at 20 to 50 mg/kg, po administered every two days for 21 days by H and E staining based analysis", "assay_type": "organism-based", "details": "in vivo, 504 h, dose 20-50 mg/kg, time 21 day"}, "[10]": {"assay": "Toxicity in female BALB/C mouse implanted with mouse 4T1 cells assessed as change in WBC level at 20 to 50 mg/kg, po administered every two days for 21 days by routine blood analysis", "assay_type": "organism-based", "details": "in vivo, 504 h, dose 20-50 mg/kg, time 21 day"}, "[11]": {"assay": "Cytotoxicity against human L02 cells assessed as reduction in cell viability incubated for 96 hrs by MTT assay", "assay_type": "toxicity, cell-based"}, "4T1 [12]": {"system": "4T1", "assay": "Antitumor activity against mouse 4T1 cells implanted in female BALB/C mouse assessed as inhibition of tumor growth at 20 to 50 mg/kg, iv administered every two days for 21 days", "assay_type": "functional, organism-based", "details": "dose 20-50 mg/kg, time 21.0 day"}, "[13]": {"assay": "Toxicity in female BALB/C mouse implanted with mouse 4T1 cells assessed as effect on monocytes at 20 to 50 mg/kg, po administered every two days for 21 days by routine blood analysis", "assay_type": "organism-based", "details": "in vivo, 504 h, dose 20-50 mg/kg, time 21 day"}, "MDA-MB-231 [14]": {"system": "MDA-MB-231", "assay": "Induction of apoptosis in human MDA-MB-231 cells assessed as late apoptotic cells at 5 uM incubated for 48 hrs by Annexin V-FITC/PI staining based flow cytometric analysis (reference value: 1.06%)", "assay_type": "functional"}, "[15]": {"assay": "Toxicity in female BALB/C mouse implanted with mouse 4T1 cells assessed as kidney damage at 20 to 50 mg/kg, po administered every two days for 21 days by H and E staining based analysis", "assay_type": "organism-based", "details": "in vivo, 504 h, dose 20-50 mg/kg, time 21 day"}, "[16]": {"assay": "Toxicity in female BALB/C mouse implanted with mouse 4T1 cells assessed as lung damage at 20 to 50 mg/kg, po administered every two days for 21 days by H and E staining based analysis", "assay_type": "organism-based", "details": "in vivo, 504 h, dose 20-50 mg/kg, time 21 day"}, "MDA-MB-231 [17]": {"system": "MDA-MB-231", "assay": "Cell cycle arrest in human MDA-MB-231 cells assessed as G2 phase cells at 20 uM incubated for 48 hrs by PI staining based flow cytometric analysis (reference value: 14.6%)", "assay_type": "functional"}, "4T1 [18]": {"system": "4T1", "assay": "Antitumor activity against mouse 4T1 cells implanted in female BALB/C mouse assessed as inhibition of tumor growth at 20 to 50 mg/kg, po administered every two days for 21 days", "assay_type": "functional, organism-based", "details": "dose 20-50 mg/kg, time 21.0 day"}, "[19]": {"assay": "Toxicity in female BALB/C mouse implanted with mouse 4T1 cells assessed as effect on body weight at 20 to 50 mg/kg, iv administered every two days for 21 days", "assay_type": "organism-based", "details": "in vivo, 504 h, dose 20-50 mg/kg, time 21 day"}, "[20]": {"assay": "Toxicity in female BALB/C mouse implanted with mouse 4T1 cells assessed as heart damage at 20 to 50 mg/kg, iv administered every two days for 21 days by H and E staining based analysis", "assay_type": "organism-based", "details": "in vivo, 504 h, dose 20-50 mg/kg, time 21 day"}, "MDA-MB-231 [21]": {"system": "MDA-MB-231", "assay": "Antiproliferative activity against human MDA-MB-231 cells assessed as reduction in cell viability incubated for 96 hrs by MTT assay", "details": "MDA-MB-231, 96 h"}, "[22]": {"assay": "Toxicity in female BALB/C mouse implanted with mouse 4T1 cells assessed as change in serum AST level at 20 to 50 mg/kg, iv administered every two days for 21 days", "assay_type": "organism-based", "details": "in vivo, 504 h, dose 20-50 mg/kg, time 21 day"}, "MDA-MB-231 [23]": {"system": "MDA-MB-231", "assay": "Cell cycle arrest in human MDA-MB-231 cells assessed as S phase cells at 20 uM incubated for 72 hrs by PI staining based flow cytometric analysis (reference value: 28.7%)", "assay_type": "functional"}, "[24]": {"assay": "Toxicity in female BALB/C mouse implanted with mouse 4T1 cells assessed as change in serum LDH level at 20 to 50 mg/kg, po administered every two days for 21 days", "assay_type": "organism-based", "details": "in vivo, 504 h, dose 20-50 mg/kg, time 21 day"}, "MDA-MB-231 [25]": {"system": "MDA-MB-231", "assay": "Induction of apoptosis in human MDA-MB-231 cells assessed as necrotic cells at 20 uM incubated for 48 hrs by Annexin V-FITC/PI staining based flow cytometric analysis (reference value: 1.63%)", "assay_type": "functional"}, "MCF7": {"system": "MCF7", "assay": "Antiproliferative activity against human MCF7 cells assessed as reduction in cell viability incubated for 96 hrs by MTT assay", "details": "MCF7, 96 h"}, "MDA-MB-231 [26]": {"system": "MDA-MB-231", "assay": "Induction of apoptosis in human MDA-MB-231 cells assessed as early apoptotic cells at 10 uM incubated for 48 hrs by Annexin V-FITC/PI staining based flow cytometric analysis (reference value: 2.25 %)", "assay_type": "functional"}, "4T1 [27]": {"system": "4T1", "assay": "Antitumor activity against mouse 4T1 cells implanted in female BALB/C mouse assessed as inhibition of tumor weight at 50 mg/kg, po administered every two days for 21 days relative to control", "assay_type": "functional, organism-based", "details": "time 21.0 day"}, "[28]": {"assay": "Toxicity in female BALB/C mouse implanted with mouse 4T1 cells assessed as lung damage at 20 to 50 mg/kg, iv administered every two days for 21 days by H and E staining based analysis", "assay_type": "organism-based", "details": "in vivo, 504 h, dose 20-50 mg/kg, time 21 day"}, "MDA-MB-231 [29]": {"system": "MDA-MB-231", "assay": "Induction of autophagy in human MDA-MB-231 cells assessed as decrease in P62 expression level incubated for 48 hrs by Western blot analysis", "assay_type": "functional, cell-based", "details": "dose 5-20 µM"}, "MDA-MB-231 [30]": {"system": "MDA-MB-231", "assay": "Cell cycle arrest in human MDA-MB-231 cells assessed as G1 phase cells at 20 uM incubated for 72 hrs by PI staining based flow cytometric analysis (reference value: 56.7%)", "assay_type": "functional"}, "[31]": {"assay": "Toxicity in female BALB/C mouse implanted with mouse 4T1 cells assessed as change in serum AST level at 20 to 50 mg/kg, po administered every two days for 21 days", "assay_type": "organism-based", "details": "in vivo, 504 h, dose 20-50 mg/kg, time 21 day"}, "[32]": {"assay": "Toxicity in female BALB/C mouse implanted with mouse 4T1 cells assessed as change in WBC level at 20 to 50 mg/kg, iv administered every two days for 21 days by routine blood analysis", "assay_type": "organism-based", "details": "in vivo, 504 h, dose 20-50 mg/kg, time 21 day"}, "[33]": {"assay": "Toxicity in female BALB/C mouse implanted with mouse 4T1 cells assessed as change in serum BUN level at 20 to 50 mg/kg, iv administered every two days for 21 days", "assay_type": "organism-based", "details": "in vivo, 504 h, dose 20-50 mg/kg, time 21 day"}}, "note": "The source made the active and inactive calls. The calls are words filed in the database; no cut-off is given here.", "data": [{"smiles": "CCC(=O)NC(n1cnc2c(Nc3cc(OC)c(OC)c(OC)c3)nc(N)nc21)C(Cl)(Cl)Cl", "note": "(centres undefined)", "values": [{"measurement": "Activity", "setting": "MDA-MB-231 [1]", "result": 10.6, "unit": "%"}, {"measurement": "Activity", "setting": "MDA-MB-231 [2]", "result": "Active"}, {"measurement": "Activity", "setting": "[3]", "result": "Non-Toxic"}, {"measurement": "Activity", "setting": "[4]", "result": "Non-Toxic"}, {"measurement": "Activity", "setting": "[5]", "result": "Non-Toxic"}, {"measurement": "Activity", "setting": "MDA-MB-231 [6]", "result": 1.57, "unit": "%"}, {"measurement": "Activity", "setting": "4T1 [7]", "result": "inactive"}, {"measurement": "Activity", "setting": "MDA-MB-231 [8]", "result": 1.34, "unit": "%"}, {"measurement": "Activity", "setting": "[9]", "result": "Non-Toxic"}, {"measurement": "Activity", "setting": "[10]", "result": "Non-Toxic"}, {"measurement": "IC50 at 96 h", "setting": "[11]", "result": 14.7, "unit": "µM"}, {"measurement": "Activity", "setting": "4T1 [12]", "result": "Active"}, {"measurement": "Activity", "setting": "[13]", "result": "Non-Toxic"}, {"measurement": "Activity", "setting": "MDA-MB-231 [14]", "result": 1.87, "unit": "%"}, {"measurement": "Activity", "setting": "[15]", "result": "Non-Toxic"}, {"measurement": "Activity", "setting": "[16]", "result": "Non-Toxic"}, {"measurement": "Activity", "setting": "MDA-MB-231 [17]", "result": 45.7, "unit": "%"}, {"measurement": "Activity", "setting": "4T1 [18]", "result": "Active"}, {"measurement": "Activity", "setting": "[19]", "result": "Non-Toxic"}, {"measurement": "Activity", "setting": "[20]", "result": "Non-Toxic"}, {"measurement": "IC50", "setting": "MDA-MB-231 [21]", "result": 1.43, "unit": "µM"}, {"measurement": "Activity", "setting": "[22]", "result": "Non-Toxic"}, {"measurement": "Activity", "setting": "MDA-MB-231 [23]", "result": 12.5, "unit": "%"}, {"measurement": "Activity", "setting": "[24]", "result": "Non-Toxic"}, {"measurement": "Activity", "setting": "MDA-MB-231 [25]", "result": 0.99, "unit": "%"}, {"measurement": "IC50", "setting": "MCF7", "result": 3.27, "unit": "µM"}, {"measurement": "Activity", "setting": "MDA-MB-231 [26]", "result": 4.54, "unit": "%"}, {"measurement": "Activity", "setting": "4T1 [27]", "result": "inactive"}, {"measurement": "Activity", "setting": "[28]", "result": "Non-Toxic"}, {"measurement": "Activity", "setting": "MDA-MB-231 [29]", "result": "Dose-Dependent Effect"}, {"measurement": "Activity", "setting": "MDA-MB-231 [30]", "result": 36.4, "unit": "%"}, {"measurement": "Activity", "setting": "[31]", "result": "Non-Toxic"}, {"measurement": "Activity", "setting": "[32]", "result": "Non-Toxic"}, {"measurement": "Activity", "setting": "[33]", "result": "Non-Toxic"}]}]}
